EPA's ToxValDB 9.5
Values joined by “and” are separate entries in the source; they are usually repeats but may differ in a detail not shown here. Equal entries are not always repeated. Blank lines part the entries; values can stand above or below the compound they belong to.

Assays:
Colinus virginianus = conditions: acute; oral; mortality
Apis mellifera = conditions: acute, mortality
Homo sapiens = conditions: clinical; for LEL: no effects
Canidae = conditions: for NOAEL: Dog Other
Daphnia magna = conditions: acute
[1] = subchronic, duration: 90 days, oral

LEL (Gallus gallus; subchronic, duration: 35 days, oral, diet, no effects): 1920 mg/kg-day
SMILES: [Cl-].[Mn+2].[Mn+2].[OH-].[OH-].[OH-] [Manganese chloride hydroxide (Mn2Cl(OH)3)]

SMILES: CCCCCCCC/C=C\CCCCCCCCCCCC(=O)O [Erucic acid]
LOAEL (Gallus gallus; chronic, histopathology: nonneoplastic): 20 mg/kg-day
NOAEL (Rattus norvegicus; short-term, duration: 7 days, oral, diet, M, Sprague-Dawley, histopathology: nonneoplastic): 700 mg/kg-day
NOAEL (Sus scrofa; short-term, duration: 14 days, M/F, Not specified, histopathology: nonneoplastic): 700 mg/kg-day

SMILES: CSSC [Methyl disulfide]
LD50 (Rattus norvegicus; acute, oral, mortality): > 125 mg/kg
NOAEC (Rattus norvegicus; reproduction developmental, body weight): 5 ppm
NOAEC (Rattus norvegicus; reproduction developmental, inhalation, no effects): 308 mg/m3
NOAEC (Rattus norvegicus; subchronic, duration: 90 days, inhalation, body weight): 77 mg/m3
LD50 (Colinus virginianus): 342 mg/kg
LD50 (Apis mellifera; dermal): > 100 µg/piece

SMILES: O=S(=O)([O-])c1ccc(N=Nc2cc(S(=O)(=O)[O-])c3ccccc3c2O)c2ccccc12.[Na+].[Na+] [Azorubine]
NOAEL (Mus musculus; chronic, hematological): 375 mg/kg-day
NOAEL (Rattus norvegicus; chronic, M/F, body weight): 400 mg/kg-day

LEL (Homo sapiens; duration: 4 weeks, oral, F): 40 mg/kg-day
SMILES: [Cl-].[K+] [Potassium chloride]

SMILES: CC(=O)OC[C@]12CCC(C)=C[C@H]1O[C@@H]1[C@H](O)[C@@H](OC(C)=O)[C@@]2(C)[C@]12CO2 [Diacetoxyscirpenol]
NOAEL (Homo sapiens; injection, intravenous, hematological): 0.065 mg/kg-day
NOAEL (Homo sapiens; injection, intravenous, other): 0.032 mg/kg-day
LOAEL (Canidae; acute, injection, intravenous, Beagle, hematological): 0.031 mg/kg-day
LOAEL (Gallus gallus; subchronic, duration: 35 days, M, Chicken, histopathology: neoplastic): 0.01 mg/kg-day
LOAEL (Sus scrofa; short-term, oral, gavage, Not specified, histopathology: neoplastic): 0.08 mg/kg-day

SMILES: Cc1cc(OC(C)C)ccc1C(=O)C(C)(C)NC(=O)c1sccc1C [Isofetamid]
NOAEL (Canidae; chronic, duration: 1 years, body weight): 1.57 mg/kg-day
NOAEL (Canidae; subchronic, duration: 90 days, oral, body weight): 5.34 mg/kg-day

SMILES: CN1CCCC1=O [N-Methyl-2-pyrrolidone]
NOAEL (Mus musculus; chronic, M/F, B6C3F1, organ weight): 90 mg/kg-day

SMILES: Cl.Cl.[Cu+2].[NH-][C@@H](CCCCN)C(=O)[O-].[NH-][C@@H](CCCCN)C(=O)[O-] [L-Lysine, copper complex]
NOAEL (Homo sapiens; duration: 12 weeks, oral, M, clinical chemistry): 10 mg/day

LEL (Homo sapiens; duration: 5 years): ≤ 15 mg/day
SMILES: CC1=C(/C=C/C(C)=C/C=C/C(C)=C/C=C/C=C(C)/C=C/C=C(C)/C=C/C2=C(C)CCCC2(C)C)C(C)(C)CCC1 [beta-Carotene]

SMILES: C/C=C/c1ccc(O)c(OC)c1 [Isoeugenol]
LOAEL (Mus musculus; chronic, duration: 2 years, M, histopathology: neoplastic): 75 mg/kg-day
NOEC (Daphnia magna): 0.4 mg/L

SMILES: CCOCCC(OCC)OCC [1,1,3-Triethoxypropane]
LOAEL (repeat dose other): 9.5 mg/kg-day
LOAEL (Rattus norvegicus; subchronic, M, hematological): 69 mg/kg-day

SMILES: CC12CCC(CC1)C(C)(C)O2 [1,8-Cineol]
NOAEL (Mus musculus; short-term, duration: 28 days, oral, capsule, M/F, other): 562 mg/kg-day

SMILES: CN/C(=N\[N+](=O)[O-])NCc1cnc(Cl)s1 [Clothianidin]
LD50 (Apis mellifera; dermal): 0.0275 µg/piece and 0.0258 µg/piece
LD50 (Apis mellifera; duration: 48 hours, dermal): 0.0275 µg/piece
LD50 (Apis mellifera; duration: 48 hours, oral, unspecified): 0.00379 µg/piece
LD50 (Apis mellifera; oral, unspecified): 0.00379 µg/piece

SMILES: CC1=C(O)C(=O)CO1 [4-Hydroxy-5-methyl-3-furanone]
NOAEL (Rattus norvegicus; chronic, duration: 2 years, oral, diet, M/F, Sprague-Dawley, body weight): 200 mg/kg-day

SMILES: COc1nc(NC(=O)NS(=O)(=O)c2ccccc2C(F)(F)F)nc(C(F)(F)F)n1 [Tritosulfuron]
NOAEL (Canidae; chronic, duration: 12 months, oral, organ weight): 6 mg/kg-day
NOAEL (Canidae; [1]): 15 mg/kg-day

SMILES: Cl.N[C@@H](C=O)[C@@H](O)[C@H](O)[C@H](O)CO [Glucosamine hydrochloride]
NOAEL (Rattus norvegicus; chronic, duration: 52 weeks): 2130 mg/kg-day

SMILES: C[N+](C)(C)CC(=O)O.[Cl-] [Betaine hydrochloride]
LEL (Sus scrofa; subchronic, duration: 6 weeks, oral, diet, M/F, Large White x Landrace, clinical chemistry): 10000 mg/kg-day

SMILES: Cc1oc2ccccc2c1C [Benzofuran, 2,3-dimethyl-]
NOAEL (subchronic, duration: 90 days): 0.6 mg/kg-day
NOAEL (Rattus norvegicus; [1]): 0.6 mg/kg-day
